Laboratory results: article PMC7893915, “Assessing cross-resistance within the pyrethroids in terms of their interactions with key cytochrome P450 enzymes and resistance in vector populations” (Parasites & Vectors, 2021)
Where two headings read alike, the source gives them in different places.

Tests used:
CYP6Z2 = target: T1, CYP6Z2 (Anopheles gambiae, UniProt Q7PNB5); conditions: read-out: IC50 CYP6Z2; inhibition of diethoxyfluorescein metabolism; footnote a; ref Yunta et al. 2016[8]; cited from earlier work
T1 sequence (Q7PNB5 1-492): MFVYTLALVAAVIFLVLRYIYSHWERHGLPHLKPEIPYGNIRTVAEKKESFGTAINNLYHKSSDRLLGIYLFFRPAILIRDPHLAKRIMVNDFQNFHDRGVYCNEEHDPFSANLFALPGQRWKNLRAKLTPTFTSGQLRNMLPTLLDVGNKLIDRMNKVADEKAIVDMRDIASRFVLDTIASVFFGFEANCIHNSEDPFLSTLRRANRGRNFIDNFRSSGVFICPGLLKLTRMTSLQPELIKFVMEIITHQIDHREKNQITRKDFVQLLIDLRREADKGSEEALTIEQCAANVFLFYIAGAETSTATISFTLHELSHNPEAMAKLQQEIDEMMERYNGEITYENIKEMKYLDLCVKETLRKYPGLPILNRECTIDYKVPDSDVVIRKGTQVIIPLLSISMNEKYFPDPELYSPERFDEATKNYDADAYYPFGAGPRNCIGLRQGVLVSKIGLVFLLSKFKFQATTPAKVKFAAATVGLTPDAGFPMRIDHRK
T1 sequence (Q86QH5 1-679 partner): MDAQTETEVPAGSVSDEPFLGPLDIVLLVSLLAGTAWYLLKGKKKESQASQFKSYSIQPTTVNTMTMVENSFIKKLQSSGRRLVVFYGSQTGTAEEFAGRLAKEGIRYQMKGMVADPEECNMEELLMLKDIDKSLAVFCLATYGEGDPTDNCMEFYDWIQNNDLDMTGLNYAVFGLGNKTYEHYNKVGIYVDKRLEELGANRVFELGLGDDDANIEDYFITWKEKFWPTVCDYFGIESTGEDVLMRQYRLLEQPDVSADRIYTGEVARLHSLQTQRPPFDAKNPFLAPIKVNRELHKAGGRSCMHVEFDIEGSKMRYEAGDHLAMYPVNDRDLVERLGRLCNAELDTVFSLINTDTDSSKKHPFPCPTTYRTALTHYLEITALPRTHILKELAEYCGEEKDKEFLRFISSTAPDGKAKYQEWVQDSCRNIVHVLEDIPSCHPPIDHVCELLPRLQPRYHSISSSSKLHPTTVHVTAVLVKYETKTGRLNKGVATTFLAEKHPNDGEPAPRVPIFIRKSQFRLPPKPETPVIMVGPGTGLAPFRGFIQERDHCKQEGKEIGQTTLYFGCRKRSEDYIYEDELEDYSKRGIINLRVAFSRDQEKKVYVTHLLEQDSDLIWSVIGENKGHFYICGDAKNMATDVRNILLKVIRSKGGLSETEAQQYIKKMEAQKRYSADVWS

[1] = tested on: An. funestus strain, FUMOZ-R; set-up: method as in PMID 26930058; conditions: strain with upregulated P450 levels without any target-site mutations; ref [47]; cited from earlier work
CYP6M2 = conditions: Incubation time 2h; mean ± SD; ref [38], [41]; cited from earlier work
[2] = tested on: P450 panel (CYP6M2, CYP6P3, CYP6P9a, CYP6P2, CYP9J5, CYP6Z3, CYP6Z2); experiment: P450 inhibition, whole P450 panel (mean across P450s); assay type: biochemical, Anopheles gambiae and An. funestus; conditions: for IC50: Anopheles gambiae and Anopheles funestus, mean of the seven P450s of Table S2, read-out: IC50 Mean across P450s
From the text: Cytochrome P450 inhibition assays using fluorogenic probe substrates have become commonplace in drug discovery screening cascades and are a rapid method of screening for insecticide interactions with mosquito P450s to predict insecticide binding, metabolism, cross-resistance and synergism. In this study, the half maximal inhibitory concentration (IC50), which provides a value for inhibition of each P450 by each pyrethroid (also referred to as ‘binding affinity’), and the percentage depletion, which gives a value for metabolism of each pyrethroid by each P450 (also referred to as vulnerability to metabolic attack), were both included as parameters to establish a P450s structural activity relationship model. This model was used to understand both the chemistry of the pyrethroids and the interaction with mosquito P450s that function as monooxygenases in metabolic resistance, to predict cross-resistance liabilities in vivo. […] A low percentage depletion indicates low metabolism of the pyrethroid, which means that it may be less vulnerable to resistance mediated by P450s.
In addition, inhibition activity data for these pyrethroids exposed to CYP6Z3 from the An. gambiae Kisumu strain were also generated (Additional file 1).

CYP6P3 = conditions: Incubation time 2h; mean ± SD; ref [38], [41]; cited from earlier work
CYP6M7 = conditions: two earlier studies; ref [28]; cited from earlier work
CYP6P9b = conditions: two earlier studies; ref [28]; cited from earlier work
CYP6P9a = conditions: two earlier studies; ref [28]; cited from earlier work
[3] = recombinant P450s, probe diethoxyfluorescein

SMILES: CC1(C)C(C=C(Cl)Cl)C1C(=O)OCc1cccc(Oc2ccccc2)c1 (stereo not drawn) [Permethrin, permethrin]
- IC50 (CYP6Z2): 13.7 µM
- effectiveness with or without piperonyl butoxide (PBO), in words [1]: only effective when partnered with PBO
- % Insecticide depletion CYP6M2 (CYP6M2): 58.5 ± 2.2%
- IC50 [2, 3]: 7.6 µM
- % Insecticide depletion CYP6P3 (CYP6P3): 100.0 ± 0.0%

SMILES: CC1(C)[C@H](C(=O)O[C@H](C#N)c2cccc(Oc3ccccc3)c2)[C@@H]1C=C(Br)Br [Deltamethrin, deltamethrin]
- IC50 (CYP6Z2): 13.9 µM
- effectiveness with or without piperonyl butoxide (PBO), in words [1]: only effective when partnered with PBO
- IC50 [2]: 5.5 µM

SMILES: Cc1c(COC(=O)[C@@H]2[C@H](/C=C(\Cl)C(F)(F)F)C2(C)C)cccc1-c1ccccc1 (racemic) [Bifenthrin, bifenthrin]
- depletion (metabolised) by CYP6M7 (CYP6M7): 62%
- depletion (metabolised) by CYP6P9b (CYP6P9b): 71%
- % Insecticide depletion CYP6M2 (CYP6M2): 38.9 ± 1.6%
- IC50 [2, 3]: 9.8 µM
- binding to the P450s panel, rank in words ([2]; among the six pyrethroids): lowest binding
- depletion (metabolised) by CYP6P9a (CYP6P9a): 68%
- % Insecticide depletion CYP6P3 (CYP6P3): 76.7 ± 0.3%

SMILES: CC1(C)[C@H](C(=O)O[C@H](C#N)c2cccc(Oc3ccccc3)c2)[C@@H]1/C=C(\Cl)C(F)(F)F (racemic) [λ-Cyhalothrin, λ-cyhalothrin]
- % Insecticide depletion CYP6M2 (CYP6M2): 49.4 ± 0.5%
- IC50 [2, 3]: 7.2 µM
- % Insecticide depletion CYP6P3 (CYP6P3): 83.3 ± 15.4%

SMILES: CCOc1ccc(C(C)(C)COCc2cccc(Oc3ccccc3)c2)cc1 [Etofenprox, etofenprox]
- % Insecticide depletion CYP6M2 (CYP6M2): 68.8 ± 1.1%
- IC50 [2, 3]: 7 µM
- % Insecticide depletion CYP6P3 (CYP6P3): 99.8 ± 0.3%
